# Assay results: patent US6827926B2, “Metallotetrapyrrolic photosensitizing agents for use in photodynamic therapy” (Miravant Pharmaceuticals, Inc., priority 2001, dated 2004)
# Read-outs that look alike come from different tables or passages of the source.
# Columns and labels:
# [1] = system: normal skin of CD Hairless male rats; type: in vivo, rat
# Source text: We tested metallo- and metal-free tetrapyrroles systemically (see following section) for normal skin response in relation to the pharmacodynamic distribution of the photosensitizers in CD hairless rats. The skin of CD hairless rats are poorly developed, often referred to as hyperkeratotic, with various sized cystic hair follicles containing concentric lamellar accumulations of keratinaceous material, which are often associated with enlarged sebaceous glands. It quickly became apparent that gallium tetrapyrroles induced a marked clearing of the hyperkeratotic lesions in the treatment areas on the hairless rats. In fact, this clearing could be induced without necrosis of the skin. No other metallotetrapyrrole type produced such effects. This observation led us to assess the metallotetrapyrrolic compounds for skin restructuring effects both topically and systemically and for their ability to reduce hair growth in the following animal models.
# Photosensitizer normal skin response as well as skin healing response, was evaluated using CD Hairless male rats. Photosensitizers were administered in an liposomal egg yolk phospholipid formulation at 1, 1.5 and 2 μmol/kg body weight formulation per dose group as a single bolus intravenous injection given through a marginal tail vein using a 27 gauge needle and a 1 cc tuberculin syringe. Normal skin responses were evaluated by irradiating several spots on the skin of the rat with a 532 nm laser (150 mW/cm^2, 150J, 1 cm diameter) at 1, 6, 24, 48, and 96 hrs post injection. Normal skin responses were evaluated and documented. The time at which the last spot is observed at the concentration injected is reported in the far right hand column in Tables 3, 4, 5 and 6. Skin samples were taken for histological evaluation at days 1, 10, 20 and 22 post light treatment. Rats were housed under normal lighting and all study procedures involving the test article were conducted under light filtered through blue and green Roscolox light filters to prevent photoactivation or degradation of the drug.
# [2] = system: V79 (Chinese Hamster Lung Fibroblasts) cells; test: In vitro cytotoxicity assay (light EC50, Alamar blue); type: cell-based
# Protocol: The in vitro biological evaluation of photosensitizers for their ability to photosensitize cells was performed using standard procedures. Using 5% FBS/DMEM phenol-free media, wells (180 μl/well) were plated with 5×10^4 V79 (Chinese Hamster Lung Fibroblasts) cells/ml into two 96 well plates. Plate 1 was light-treated and plate 2 served as a control. The plates were Incubated at 37° C., 5% CO2 for 3-5 hours. Standard solutions of the photosensitizers were dissolved in pre-filtered Dimethyl Sulfoxide (DMSO). Drug was diluted in 5% FBS DMEM phenol free medium. Final drug concentrations for light and dark experiments were 0.01, 0.1, 1.0, 3.0 and 5.0 μM. Twenty microliters of each concentration were added to six replicate wells to the light and dark plate. The plates were wrapped in aluminum foil to avoid photoactivation and mixed in a gyratory shaker for approximately 2 minutes. Both plates were incubated for 24 hours at 37° C., 5% CO2. After a 24 hour incubation, drug-containing media was aspirated from the plates. Each well was rinsed with 180 μl Hepes buffer salt solution (HBSS) then aspirated to remove the HBSS. 180 μl of fresh media were added (5% FBS/DMEM phenol-free) to each well. […] Plate 2 was not light treated. Immediately after light treatment, 20 μl Alamar blue was added to each well in plate 1. Alamar blue was added to plate 2 immediately after fresh media was added. The plates were mixed on a gyratory shaker for 5 min.
# Both plates were incubated under dark conditions for 24 hours at 37° C., 5% CO2. After 24 hour incubation, the plates were read on a plate reader spectrophotometer (Spectra Max 250) at wavelengths 570 and 600 nm. and the percentage of cell survival recorded.
# [3] = system: normal uninjured rat carotid arteries (medial and adventitial cell populations); test: In vivo rat carotid artery acellularity after PDT; set-up: species or system Sprague Dawley rats; conditions: for Max % rat Artery Accelularity: Table 3; for Max % Rat Artery Accelularity: Table 4, drug dose 4 μMol
# Protocol: The acute effects of metallated photosensitizers, in response to light activation, to cause depletion of cell populations in the medial and adventitial layers of vessels was measured in normal uninjured rat carotid arteries. […] Shortly before the light treatment, the rats were anaesthetized with 3.5% isoflurane (Abbott Laboratories, IL, USA) and the femoral region of the right leg was shaved and cleaned. […] A direct arteriotomy was performed and a light balloon catheter ([…] Medical Technologies, Inc) was introduced into the vessel and advanced retrogradely into a non-manipulated region of the left common carotid artery via the abdominal aorta. […] After light treatment and removal of the catheter, the right femoral artery was tied off and the skin wound was closed. Rats were sacrificed three days post treatment as this corresponds to the known peak time that vascular cells, e.g., VSMC and myofibroblasts, proliferate and migrate in response to an injury. The area spanning both left and right carotid arteries and surrounding tissue was harvested, fixed, embedded in paraffin and sectioned. The tissues were stained with Hematoxylin and Eosin (Fisher Scientific, PA) and examined by light microscopy to histologically assess the cell population density in the medial and adventitial layers of the PDT-treated vessel wall. […] Metallo azaporphyrins with Ga, Zn, Al, Sn were excited at 575 nm, while Pt azaporphyrins were excited at 532 nm.
# [4] = Table 3 porphyrins, 24 h drug incubation, 532 nm, 1.25 J/cm^2, read-out: In Vitro EC50 Light
# [5] = drug dose 1 μMol, 50 J/cm^2, 3 days post treatment
# [6] = Table 3, time of last skin spot observed post injection, 1 μmol, 532 nm laser
Compound,"Normal skin Response (1 μmol) in hrs ([1]; rat, in vivo)","EC50 [2, 4]","Normal skin Response (1 μmol) ([1]; rat, in vivo)","Max % rat Artery Accelularity [3, 5]",also measured
"8,13-diethyl-3,7,12,17-tetramethylporphrine-2,18-di(3′-hydroxypropyl) [Example 7a]",none,400 nM,–,–,"Max % rat Artery Accelularity ([3]; drug dose 0.16 μMol): 7%; efficacy of free base porphyrins in the arterial rat model ([3]; at the time point, drug and light dose parameters used): poor efficacy; efficacy in the rat arterial model ([3]; drug doses up to 2 μmol/Kg): no efficacy"
"CCOC(=O)CCC1=C(C)c2cc3[n-]c(cc4nc(cc5[n-]c(cc1n2)c(CCC(=O)OCC)c5C)C(CC)=C4C)c(CC)c3C.[Cl-].[Ga+3] [Example 2, Gallium Chloride Mesoporphyrin Diethyl Ester]",–,490 nM,24 h,80%,–
"CCOC(=O)CCC1=C(C)c2cc3[n-]c(cc4nc(cc5[n-]c(cc1n2)c(CCC(=O)OCC)c5C)C=C4C)cc3C.[Cl-].[Ga+3] [Example 5, Gallium Chloride Deuteroporphyrin Diethyl Ester]",–,400 nM,48 h,80%,–
"CC1=Cc2cc3[n-]c(cc4nc(cc5[n-]c(cc1n2)c(C)c5CCCO)C(CCCO)=C4C)cc3C.[Cl-].[Ga+3] [Example 8, Gallium Chloride 8,13-desvinyl-3,7,12,17-tetramethylporphyrin-2,18-di(3′-hydroxypropyl)]",–,400 nM,96 h,80%,–
"CCC1=C(C)C2=[N+]3C1=Cc1c(C)c(CC)c4[n]1[Ga-2]31([Cl])[n]3c(c(C)c(CCC(=O)NCCOC)c3=CC3=[N+]1C(=C4)C(C)=C3CCC(=O)NCCOC)=C2 [Example 11, Gallium Chloride Mesoporphyrin di-(2′-methoxyethyl amide)]",–,1900 nM,6 h,30%,–
"COC(=O)CCC1=C(C)c2cc3[n-]c(cc4nc(cc5[n-]c(cc1n2)c(CCC(=O)OC)c5C)C(CN(C)C)=C4C)c(CN(C)C)c3C.[Ga+3].[OH-] [Example 12, Gallium Hydroxy 3,8-N,N-dimethylaminomethyl deuteroporphyrin dimethyl ester]",None,500 nM,–,50%,–
"C=Cc1c(C)c2cc3nc(c(CC(=O)OC)c4[n-]c(cc5nc(cc1[n-]2)C(C)=C5CC)c(C)c4C(=O)NC)C(CCC(=O)OC)=C3C.[Cl-].[Ga+3] [Example 14, Gallium Chloride Chloroporphyrin e6 Dimethyl Ester 12-methylamide]",–,–,6 h,–,"EC50 ([2]; Table 5 plant derived gallium porphyrins, light, read-out: In Vitro EC(50)): 290 nM; Max % Rat Artery Acceluarity ([3]; Table 5, drug dose 1 μMol): 65%"
"CCC1=C(C)c2cc3[n-]c(cc4nc(cc5[n-]c(cc1n2)c(C)c5CCC(=O)OC)C(CCC(=O)OC)=C4C)c(C)c3CC.[Zn+2] [Example 33, Zinc Mesoporphyrin Dimethyl Ester]",–,–,24 h,0%,–
"CCC1=C(C)C2=NC1=Cc1c(C)c(CC)c3[n]1[Pt][n]1c(c(C)c(CCCC(=O)OC)c1=CC1=NC(=C3)C(C)=C1CCCC(=O)OC)=C2 [Example 47, Platinum 8,13-diethyl-3,7,12,17-tetramethylporphyrin-2,18-di(butanoic acid methyl ester)]",–,200 nM,–,–,"Normal skin Response (1 μmol) [1, 6]: 48 h"
"CCC1=C(C)C2=[N+]3C1=Cc1c(C)c(CC)c4[n]1[Zn-2]31[n]3c(c(C)c(CCC(=O)NCCCN5CCOCC5)c3=CC3=[N+]1C(=C4)C(C)=C3CCC(=O)NCCCN1CCOCC1)=C2 (centres unmarked) [Example 63, Zinc Mesoporphyrin 3-(N-morpholino)propylamide]",None,25 nM,–,–,–
"CCC1=C(C)c2cc3[n-]c(cc4nc(cc5[n-]c(cc1n2)c(C)c5CCC(=O)NCCCO)C(CCC(=O)NCCCO)=C4C)c(C)c3CC.[Cl-].[Ga+3] [Example 66, Gallium Chloride Mesoporphyrin di(3-hydroxypropylamide)]",None,200 nM,–,–,–
"CCC1=C(C)C2=[N+]3C1=Cc1c(C)c(CC)c4[n]1[Ga-2]31([OH])[n]3c(c(C)c(CCC(=O)NCCN(C)C)c3=CC3=[N+]1C(=C4)C(C)=C3CCC(=O)NCCN(C)C)=C2 [Example 70, Gallium Hydroxy Mesoporphyrin di-(N,N-dimethylaminoethylamide)]",None,1700 nM,–,–,–
"CCC1=C(C)c2cc3[nH]c(cc4nc(cc5[nH]c(cc1n2)c(C)c5CCC(=O)NCCN(C)C)C(CCC(=O)NCCN(C)C)=C4C)c(C)c3CC.[Pt] [Example 71, Platinum Mesoporphyrin di(N,N-dimethylaminoethylamide)]",–,200 nM,96 h,–,–
"CCC1=C(C)c2cc3[n-]c(cc4nc(cc5[n-]c(cc1n2)c(C)c5CC)C(C)=C4CCCN1CCCC1)c(CCCN1CCCC1)c3C.[In+3].[OH-] [Example 76, Indium hydroxy 8,13-diethyl-3,7,12,17-tetramethylporphyrin-2,18-di(3-(N-pyrrolidino)propyl)]",–,20 nM,–,–,"Normal skin Response (1 μmol) [1, 6]: 96 h"
"CCOP(=O)(CCCC1=C(C)c2cc3cc(C)c(cc4nc(cc5[n-]c(cc1n2)c(CCCP(=O)(OCC)OCC)c5C)C(C)=C4)[n-]3)OCC.[Cl-].[In+3] [Example 81, Indium Chloride 3,7,12,17-tetramethylporphyrin-2,18-di((3′-diethylphosphono)propyl)]",–,400 nM,–,–,"Normal skin Response (1 μmol) [1, 6]: 48 h; photodynamic activity in vivo ([1]; text b240): photodynamically active in vivo"
"CCC1=C(CC)C2=[N+]3C1=Nc1c(CC)c(CC)c4[n]1[Ga-2]31([OH])[n]3c(c(C)c(CCC(=O)[O-])c3=CC3=[N+]1C(=C4)C(C)=C3CCC(=O)[O-])=C2.[Na+].[Na+] [Example 88, Gallium Hydroxy 7,8,12,13-tetraethyl-12,17-dimethyl-10-azaporphyrin-2,18-di(propionic acid Sodium Salt)]",None,–,–,–,"normal skin response at the drug doses used ([1]; rat, in vivo): no observed normal skin response; acellularity following PDT of rat arteries at longer treatment times post injection ([3]; 16, 24 hrs post injection): significant acellularity; accelularity in rat artery at a four hour treatment point ([3]; 4 hrs post administration): 10%; Max % Rat Artery Accelularity ([3]; 4 hrs): 10 (4 hrs) %; Max % Rat Artery Accelularity ([3]; 24 hrs): 100 (24 hrs) %"
"CCC1=C(CC)C2=Nc3c(CC)c(CC)c4[n]3[In]([Cl])[n]3c(c(C)c(CCCOC)c3=CC3=NC(=C4)C(C)=C3CCCOC)=CC1=N2 [Example 107, Indium Chloride 7,8,12,13-tetraethyl-12,17-dimethyl-10-azaporphyrin-2,18-di(3-methoxypropyl)]",–,–,96 h,–,"EC50 ([2]; Table 4 azaporphyrins, 575 nm (Pt azaporphyrins 532 nm), 1.25 J/cm^2, read-out: In Vitro EC(50)): 50 nM"
Platinum Mesoporphyrin di(2-ethoxyethanolamide) [Example 69],None,500 nM,–,–,–
